14 compounds from US20230087118A1, “IMIDAZO[1,2-a][sequence] DERIVATIVES AND THEIR USE IN THE TREATMENT OF DISEASE” (priority 2019, published 2023) can be followed below.

The structures appear in SMILES notation.

Experiment [1] has as its target T1, IRAK4 (Homo sapiens, UniProt Q9NWZ3).
T1 sequence (Q9NWZ3 1-460): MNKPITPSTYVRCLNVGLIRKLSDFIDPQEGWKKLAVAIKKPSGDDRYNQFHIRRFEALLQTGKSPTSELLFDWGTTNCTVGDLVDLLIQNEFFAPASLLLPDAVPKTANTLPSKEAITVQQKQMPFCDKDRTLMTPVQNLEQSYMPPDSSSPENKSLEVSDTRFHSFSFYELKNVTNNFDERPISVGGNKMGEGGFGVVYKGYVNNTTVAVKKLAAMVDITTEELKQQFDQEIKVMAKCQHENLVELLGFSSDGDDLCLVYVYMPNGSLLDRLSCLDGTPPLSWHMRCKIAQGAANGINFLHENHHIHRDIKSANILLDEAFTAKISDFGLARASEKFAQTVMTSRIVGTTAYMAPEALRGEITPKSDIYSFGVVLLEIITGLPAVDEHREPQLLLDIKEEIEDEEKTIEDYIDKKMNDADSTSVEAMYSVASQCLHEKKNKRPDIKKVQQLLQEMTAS
Nature of the experiment: 2-hour 10 μM ATP Biochemical Assay (MesoScale Detection format; IRAK4 phosphorylation of biotin labeled IRAK1 activation loop peptide). The following applies: 0.1 nM IRAK4. How it is done:
Compounds of the invention were assessed for their ability to inhibit IRAK4 activity. The inhibitory properties of the compounds of the invention described herein can be evidenced by testing in any one of the following assays.
The 2-hour 10 μM ATP Biochemical Assay employs a MesoScale Detection (MSD) format. The kinase reaction is based on the IRAK4 phosphorylation of a biotin labeled peptide (IRAK1 activation loop sequence 360-389).
The kinase reaction in 30 μl is carried out in wells of a 384 well polypropylene assay plate, with 0.1 nM IRAK4, 1.6 μM of biotinylated peptide substrate and 10 μM ATP in 50 mM Hepes, pH 7.5, 60 mM NaCl, 5 mM MgCl2, 0.25 mM MnCl2, 2 mM DTT, 0.01% BSA, and 1% DMSO (from compound DMSO stocks), for 2 hour at room temperature. The activity is quenched with 11 μl of 70 mM EDTA, pH 8.
To detect the phosphorylated biotinylated peptide substrate, 30 μl of the quenched reaction mixture is added to equivalent wells of a 384 well streptavidin coated MesoScale plate (Meso Scale Discovery #L21SA-1). After a 1 hour incubation of the plate for 1 hour at room temperature with gentle mixing, the plate wells are washed 3 times with 50 mM Tris, pH 7.5, 150 mM NaCl, 0.02% Tween-20.
A 25 μl volume of 1:500 anti-P-Threonine Rabbit polyclonal Antibody plus 1:500 Goat-anti-Rabbit Sulfo Tag Antibody (Meso Scale Discovery R32AB-1) in 50 mM Tris, pH 7.5, 150 mM NaCl, 0.02% Tween-20 plus 2% BSA is then added to each well. After a 1-hour incubation of the plate for 1 hour at room temperature with gentle mixing, the plate wells are washed, 3 times with 50 mM Tris, pH 7.5, 150 mM NaCl, 0.02% Tween-20. A 40 μl volume of 2× MSD Read Buffer (Meso Scale Discovery R92TC-1) is added to each well, and the plate is read immediately in an MSD Plate Reader (Meso Scale Discovery).

The target of experiment [2] is T1, IRAK4. Nature of the experiment: biochemical.

For orientation: IC50 means the concentration needed to halve the response being measured. Low readings indicate higher potency, high ones lower potency. For the compound `COc1cc2nc(C3CCOCC3)cn2cc1C(=O)Nc1cccc(C)c1` [Example 143], the IC50 against IRAK4 [1] was determined as 10 nM; against IRAK4 [2], 35.4 nM.

Regarding `COc1cc2nc(C3CCOCC3)cn2cc1C(=O)Nc1cccc(Cl)c1` [Example 144], the IC50 worked out at 7 nM against IRAK4 [1] and 25.1 nM at IRAK4 [2].

Turning to `COc1cc2nc(C3CCOCC3)cn2cc1C(=O)Nc1cccc(C(C)(F)F)c1` [Example 145], the IC50 against IRAK4 [1] is 13 nM; against IRAK4 [2] it was 41.9 nM.

For the compound `COc1cc2nc(C3CCOCC3)cn2cc1C(=O)Nc1ccccn1` [Example 146], the values for the IC50 against IRAK4 [1] and at IRAK4 [2] were 9 nM and 31.1 nM, respectively.

As for `COc1cc2nc(C3CCOCC3)cn2cc1C(=O)Nc1ccccc1F` [Example 147], the IC50 is 10 nM at IRAK4 [1] and 41.7 nM against IRAK4 [2].

As to `COc1cc2nc(C3CCOCC3)cn2cc1C(=O)Nc1cccc(C(F)(F)F)c1` [Example 158], the results for the IC50 against IRAK4 [1] and against IRAK4 [2] were 8 nM and 25.7 nM, respectively.

Regarding `COc1cc2nc(C3CCOCC3)cn2cc1C(=O)Nc1cccc2c1OCCC2` [Example 162], the IC50 on IRAK4 [1] was 1 nM; against IRAK4 [2] it was 1.6 nM.

Regarding `COc1cc2nc(C3CCOCC3)cn2cc1C(=O)Nc1ccccc1OC(C)C` [Example 168], the IC50 against IRAK4 [1] is 11 nM; against IRAK4 [2], 37.8 nM.

In the case of `COc1cc2nc(C3CCOCC3)cn2cc1C(=O)Nc1cc(F)cc(C(F)F)c1` [Example 169], the IC50 at IRAK4 [1] turned out to be 12 nM; against IRAK4 [2] it was 29.6 nM.

For `COc1cc2nc(C3CCOCC3)cn2cc1C(=O)Nc1cccc(Cl)c1OC` [Example 170], the results for the IC50 against IRAK4 [1] and against IRAK4 [2] were 2 nM and 5.3 nM, respectively.

Take `COc1cc2nc(C3CCOCC3)cn2cc1C(=O)Nc1cccc(F)c1Cl` [Example 173]: the IC50 against IRAK4 [1] is 4 nM; against IRAK4 [2], 16 nM.

As to `COc1cc2nc(C3CCOCC3)cn2cc1C(=O)Nc1cccc(Cl)c1C` [Example 174], the concentration for half-maximal inhibition (IC50) is 7 nM against IRAK4 [1] and 47.7 nM against IRAK4 [2].

Turning to `COc1cc2nc(C3CCOCC3)cn2cc1C(=O)Nc1cccc2c1OCC2` [Example 179], the IC50 was found to be 4 nM at IRAK4 [1] and 8.9 nM against IRAK4 [2].

Take `COc1cc2nc(C3CCOCC3)cn2cc1C(=O)Nc1cccc(C(F)(F)F)n1` [Example 203]: the IC50 came to 4 nM against IRAK4 [1] and 9.6 nM at IRAK4 [2].
